From patent US11033559B2, “Leukocyte infiltration promoting agent and antitumor immunostimulatory agent” (OSAKA UNIVERSITY, priority 2015, dated 2021)

How the values were obtained:
Format in all cases: in vivo
LLC tumor in mice [1] = experiment: Drug (doxorubicin) delivery from tumor blood vessels to tumor tissues after LPA administration; settings: LLC-bearing mice, LPA 3 mg/kg i.p., doxorubicin 1.5 mg/kg via tail vein 24 hours later, tumors harvested at 20 minutes
Source text: As is commonly known, low blood flow and vascular hyperpermeability are the hallmarks of tumors. These cause an increase in tumor interstitial fluid pressure, leading to no difference in osmotic pressure between the tumor parenchyma and the blood vessels. This condition is a great obstacle to substance penetration from the vascular lumen to tumor tissues. Based on the above results showing that LPA administration induces a dense network formation of tumor blood vessels with a smooth luminal surface, it was hypothesized that LPA administration would improve drug penetration from tumor blood vessels. To examine drug penetration into tumors after LPA administration, the following experiments were conducted.
LLC cells were subcutaneously inoculated into C57BL/6 NCrSlc mice aged 8 weeks (females, SLC, Inc.) in the same manner as in Reference Example 1. An LPA solution for administration was prepared in the same manner as in Reference Example 1. On day 11 post-inoculation, LLC-bearing mice that had developed a tumor with a volume of 100 to 120 mm^3 were selected. The mice were divided into two groups: a control group and an LPA group (n=3 per group). After grouping, LPA (3 mg/kg/100 μL) or PBS (100 μL) was intraperitoneally administered to the mice. […] Doxorubicin is a fluorescent anticancer drug that can be detected at an excitation wavelength of 480 nm and a measurement wavelength of 575 nm. […]

[2] = system: B16-BL6 mouse melanoma cell line; experiment: Tumor growth inhibition, subcutaneous tumor formed from melanoma cells; settings: B16-BL6-bearing mice; LPA 3 mg/kg i.p. once daily for seven days; 5-FU 100 mg/kg i.p. once weekly, 2 times
Protocol: (§1) LLC cells (1×10^6 cells in 100 μL PBS per animal) were subcutaneously injected into C57BL/6 NCrSlc mice aged 8 weeks (females) in the same manner as in Reference Example 1. An LPA solution for administration was prepared in the same manner as in Reference Example 1. 5-FU (Kyowa Hakko Kirin Co., Ltd.) was used as an anticancer drug. 5-FU was prepared as a solution in physiological saline (Otsuka Pharmaceutical Co., Ltd.). On day 7 post-inoculation, LLC-bearing mice that had developed a tumor with a volume of 30 to 50 mm^3 were selected and subjected to the experiment. The mice were assigned to three groups: a control group, a 5-FU group and an LPA group (n=3 per group). After grouping, LPA (3 mg/kg/100 μL), 5-FU (100 mg/kg/100 μL) or PBS (100 μL) was intraperitoneally administered to the mice. The administration of LPA or PBS was performed once daily for consecutive seven days. The administration of 5-FU was performed once weekly, 2 times in total (day 7 and day 14 post-inoculation). Tumor size was measured over time after the start of the administration. Tumor volume was calculated by the following formula: length×width×height×0.5.
The B16-BL6 mouse melanoma cell line was used. B16-BL6 cells (1×10^6 cells in […] PBS per animal) were subcutaneously injected into C57BL/6 NCrSlc mice aged 8 weeks (females). […]

LLC tumor in mice [3] = experiment: Changes in localization of immune cells in tumor (CD31, CD4, CD8 immunostaining); settings: tumor sections of Reference Example 1, LLC-bearing mice, 3 mg/kg i.p. for five days
Protocol: LPA was administered to tumor-bearing mice generated by subcutaneous inoculation of a mouse cancer cell line, and changes in the localization of immune cells in the tumor were examined.
The tumor sections prepared in Reference Example 1 were immunostained with an anti-CD4 antibody and an anti-CD8 antibody. As a primary antibody, Purified Hamster Anti-PECAM-1 Antibody (Millipore), which is an anti-mouse CD31 antibody, PE-labeled Anti-mouse CD4 Antibody (Pharmingen) or FITC-labeled Anti-mouse CD8 Antibody (Pharmingen) was used. As a secondary antibody, Alexa Fluor 647-conjugated Anti-Armenian Hamster IgG was used. The immunostaining was performed in the same procedure as in Reference Example 1. The immunostained sections were observed and photographed under a confocal laser microscope (Leica).

LLC cells = experiment: Tumor growth inhibition, subcutaneous tumor formed from LLC cells; settings: LLC-bearing mice; LPA 3 mg/kg i.p. once daily for seven days; 5-FU 100 mg/kg i.p. once weekly, 2 times
Protocol: as §1

lysophosphatidic acid [LPA]
penetration of doxorubicin into tumors (LLC tumor in mice [1]): delivery of doxorubicin from tumor blood vessels to the deep part of the tumor was observed | inhibitory effect on growth of the tumor formed from melanoma cells [2]: comparable to that of 5-FU | continuity of tumor blood vessels (anti-CD31 staining) (LLC tumor in mice [3]): blood vessels were continuous | localization of CD4-positive cells in the tumor (LLC tumor in mice [3]): CD4-positive cells were present even in the central part of the tumor | localization of CD8-positive cells in the tumor (LLC tumor in mice [3]): CD8-positive cells were present in the whole tumor region | inhibition of tumor growth (tumor volume) versus control group (LLC cells): albeit to a slightly lesser extent, the LPA group also showed inhibition of tumor growth
